A short description of the data set: Fluorescence of control wells containing enzyme substrate in LB broth without spores. The data set is classed as physicochemical. The note with it: substrate 0.3 mg/mL, 60° C. On the procedure: Luria-Bertani (LB) broth was prepared by dissolving tryptone (10 g/L), yeast extract (5 g/L), and NaCl (5 g/L) in deionized water. In the examples, 6′-fluoro-4′-methylumbelliferyl α-D-glucopyranoside (0.3 mg/mL) or 5′-fluoro-4′-methylumbelliferyl α-D-glucopyranoside (0.3 mg/mL) was added to the broth. In the comparative examples, 4′-methylumbelliferyl α-D-glucopyranoside (MUG) (0.3 mg/mL) or 6′,8′-Difluoro-4′-methylumbelliferyl α-D-glucopyranoside (0.3 mg/mL) was added to the broth. The pH of the broth was adjusted to either pH 6, pH 7, pH 8, or pH 9 using 0.1 N hydrochloric acid or 1N sodium hydroxide solutions. The broth was passed through a 0.22 micron filter prior to use.
LB broth (pH 6) containing 6′-fluoro-4′-methylumbelliferyl α-D-glucopyranoside (0.3 mg/mL) (enzyme substrate of Example 1) was added to two wells (100 microliters per well) of a black 96-well microtiter plate with optically clear, flat bottom wells (NUNC #165301, Thermo Fisher Scientific, Waltham, MA). A 5 microliter aqueous suspension containing 5×10^6 Geobacillus stearothermophilus spores (ATCC 7953) was added to each well of the microtiter plate. Next, the contents of each well were mixed using a multiple aspiration/delivery sequence with the pipet. […] The top of the plate was covered with an optically clear sealing film (product #4311971, Applied Biosystems Corporation, Foster City, CA). The plate was warmed at 60° C. and shaken in a linear direction. Fluorescence readings (360 nm excitation/450 nm emission at 50% gain) were taken from the bottom of the plate. A reading was taken at an initial time point of 10 seconds and then at +1 minute intervals thereafter. A Synergy Neo2 fluorescence plate reader (BioTek Company, Winooski, VT) was used. In Table 1, the mean fluorescence values detected (RFU) at times of 10 seconds, +5 minutes, +10 minutes, and +30 minutes are reported. The mean fluorescence values detected for the control wells were 978 RFU at 10 seconds; 920 RFU at +5 minutes; 870 RFU at +10 minutes, and 746 RFU at +30 minutes.
LB broth (pH 7) containing 6′-fluoro-4′-methylumbelliferyl α-D-glucopyranoside (0.3 mg/mL) (enzyme substrate of Example 1) was added to two wells (100 microliters per well) of a black 96-well microtiter plate with optically clear, flat bottom wells (NUNC #165301, Thermo Fisher Scientific). A 5 microliter aqueous suspension containing 5×10^6 Geobacillus stearothermophilus spores (ATCC 7953) was added to each well of the microtiter plate. Next, the contents of each well were mixed using a multiple aspiration/delivery sequence with the pipet. […] The top of the plate was covered with an optically clear sealing film (product #4311971, Applied Biosystems Corporation). The plate was warmed at 60° C. and shaken in a linear direction. Fluorescence readings (360 nm excitation/450 nm emission at 50% gain) were taken from the bottom of the plate. A reading was taken at an initial time point of 10 seconds and then at +1 minute intervals thereafter. A Synergy Neo2 fluorescence plate reader (BioTek Company) was used. In Table 2, the mean fluorescence values detected (RFU) at times of 10 seconds, +5 minutes, +10 minutes, and +30 minutes are reported. The mean fluorescence values detected for the control wells were 989 RFU at 10 seconds; 936 RFU at +5 minutes; 895 RFU at +10 minutes, and 763 RFU at +30 minutes.
LB broth (pH 8) containing 6′-fluoro-4′-methylumbelliferyl α-D-glucopyranoside (0.3 mg/mL) (enzyme substrate of Example 1) was added to two wells (100 microliters per well) of a black 96-well microtiter plate with optically clear, flat bottom wells (NUNC #165301, Thermo Fisher Scientific). A 5 microliter aqueous suspension containing 5×10^6 Geobacillus stearothermophilus spores (ATCC 7953) was added to each well of the microtiter plate. Next, the contents of each well were mixed using a multiple aspiration/delivery sequence with the pipet. […]

Regarding `Cc1cc(=O)oc2cc(O[C@H]3O[C@H](CO)[C@@H](O)[C@H](O)[C@H]3O)cc(F)c12` [Example 2, 5′-Fluoro-4′-methylumbelliferyl α-D-glucopyranoside], the “mean fluorescence values detected for the control wells” value (from here on “mean fluorescence values detected”) reads like this: (pH 6 LB broth, 10 seconds) 828 RFU; (pH 6 LB broth, +5 minutes) 784 RFU; (pH 6 LB broth, +10 minutes) 738 RFU; (pH 6 LB broth, +30 minutes) 622 RFU; (pH 7 LB broth, 10 seconds) 720 RFU; (pH 7 LB broth, +5 minutes) 679 RFU. Also, the “mean fluorescence values detected” value is 646 RFU (pH 7 LB broth, +10 minutes); 547 RFU (pH 7 LB broth, +30 minutes); 616 RFU (pH 8 LB broth, 10 seconds); 573 RFU (pH 8 LB broth, +5 minutes); 538 RFU (pH 8 LB broth, +10 minutes); 455 RFU (pH 8 LB broth, +30 minutes). The “mean fluorescence values detected” value (pH 9 LB broth, 10 seconds) amounted to 501 RFU; the “mean fluorescence values detected” value (pH 9 LB broth, +5 minutes) was 449 RFU; the “mean fluorescence values detected” value (pH 9 LB broth, +10 minutes) worked out at 421 RFU; the “mean fluorescence values detected” value (pH 9 LB broth, +30 minutes) worked out at 365 RFU.
In the case of `Cc1cc(=O)oc2c(F)c(O[C@H]3O[C@H](CO)[C@@H](O)[C@H](O)[C@H]3O)c(F)cc12` [Comparative Example A, 6′,8′-Difluoro-4′-methylumbelliferyl α-D-glucopyranoside], the “mean fluorescence values detected” value by setting is: (pH 6 LB broth, 10 seconds) 1,768 RFU; (pH 6 LB broth, +5 minutes) 1,750 RFU; (pH 6 LB broth, +10 minutes) 1,743 RFU; (pH 6 LB broth, +30 minutes) 1,805 RFU; (pH 7 LB broth, 10 seconds) 1,536 RFU; (pH 7 LB broth, +5 minutes) 1,519 RFU. Moreover, the “mean fluorescence values detected” value by setting is: (pH 7 LB broth, +10 minutes) 1,508 RFU; (pH 7 LB broth, +30 minutes) 1,439 RFU; (pH 8 LB broth, 10 seconds) 2,547 RFU; (pH 8 LB broth, +5 minutes) 2,601 RFU; (pH 8 LB broth, +10 minutes) 2,666 RFU; (pH 8 LB broth, +30 minutes) 3,020 RFU. The “mean fluorescence values detected” value (pH 9 LB broth, 10 seconds) was 1,381 RFU; the “mean fluorescence values detected” value (pH 9 LB broth, +5 minutes) is 1,397 RFU; the “mean fluorescence values detected” value (pH 9 LB broth, +10 minutes) is 1,496 RFU; the “mean fluorescence values detected” value (pH 9 LB broth, +30 minutes) was 2,521 RFU.
Consider `Cc1cc(=O)oc2cc(O[C@H]3O[C@H](CO)[C@@H](O)[C@H](O)[C@H]3O)c(F)cc12` [Example 1, 6′-Fluoro-4′-methylumbelliferyl α-D-glucopyranoside], for which the “mean fluorescence values detected” value by setting is: (pH 6 LB broth, 10 seconds) 978 RFU; (pH 6 LB broth, +5 minutes) 920 RFU; (pH 6 LB broth, +10 minutes) 870 RFU; (pH 6 LB broth, +30 minutes) 746 RFU; (pH 7 LB broth, 10 seconds) 989 RFU; (pH 7 LB broth, +5 minutes) 936 RFU. In addition, the “mean fluorescence values detected” value turned out to be 895 RFU (pH 7 LB broth, +10 minutes); 763 RFU (pH 7 LB broth, +30 minutes); 940 RFU (pH 8 LB broth, 10 seconds); 884 RFU (pH 8 LB broth, +5 minutes); 845 RFU (pH 8 LB broth, +10 minutes); 723 RFU (pH 8 LB broth, +30 minutes). The “mean fluorescence values detected” value is given as 825 RFU (pH 9 LB broth, 10 seconds); 772 RFU (pH 9 LB broth, +5 minutes); 738 RFU (pH 9 LB broth, +10 minutes); 633 RFU (pH 9 LB broth, +30 minutes).
Consider `Cc1cc(=O)oc2cc(O[C@H]3O[C@H](CO)[C@@H](O)[C@H](O)[C@H]3O)ccc12` [MUG, 4′-methylumbelliferyl-α-D-glucopyranoside], for which the “mean fluorescence values detected” value is, setting by setting: (pH 6 LB broth, 10 seconds) 868 RFU; (pH 6 LB broth, +5 minutes) 802 RFU; (pH 6 LB broth, +10 minutes) 756 RFU; (pH 6 LB broth, +30 minutes) 656 RFU; (pH 7 LB broth, 10 seconds) 722 RFU; (pH 7 LB broth, +5 minutes) 670 RFU. In addition, the “mean fluorescence values detected” value (pH 7 LB broth, +10 minutes) amounted to 636 RFU; the “mean fluorescence values detected” value (pH 7 LB broth, +30 minutes) is listed as 557 RFU; the “mean fluorescence values detected” value (pH 8 LB broth, 10 seconds) is on record as 628 RFU; the “mean fluorescence values detected” value (pH 8 LB broth, +5 minutes) is listed as 569 RFU; the “mean fluorescence values detected” value (pH 8 LB broth, +10 minutes) turned out to be 535 RFU; the “mean fluorescence values detected” value (pH 8 LB broth, +30 minutes) is given as 463 RFU. The “mean fluorescence values detected” value is on record as 494 RFU (pH 9 LB broth, 10 seconds); 436 RFU (pH 9 LB broth, +5 minutes); 406 RFU (pH 9 LB broth, +10 minutes); 338 RFU (pH 9 LB broth, +30 minutes).

The record behind these values is patent US12123048B2, “Fluorinated 4′-alkylumbelliferyl a-D-glucopyranosides, biological sterilization indicators including the same and methods of using the same” (3M INNOVATIVE PROPERTIES COMPANY, priority 2018, dated 2024).
